From the OPERA property sets (Mansouri et al. 2018)

Conditions: for log10 BCF: fish

Row | Compound | boiling point [°C] | melting point [°C] | also measured
1 | CCOC(=O)CCCCCCC(=O)OCC | 283 | 5.9 | 
2 | Clc1ccc(Cl)c(Oc2ccccc2)c1Cl |  |  | log10 vapour pressure (mmHg): -3.55
3 | Cn1ccccc1=O | 250 | 31 | 
4 | C[C@H]1CC[C@]2(NC1)O[C@H]1C[C@H]3[C@@H]4CC[C@H]5C[C@@H](O)CC[C@]5(C)[C@H]4CC[C@]3(C)[C@H]1[C@@H]2C |  | 210 | 
5 | CN1CC[C@]23c4c5ccc(OCc6ccccc6)c4O[C@H]2[C@@H](O)C=C[C@H]3[C@H]1C5 |  | 132 | 
6 | CC(=O)OCC(=O)[C@@]1(O)[C@@H](C)C[C@H]2[C@@H]3CCC4=CC(=O)C=C[C@]4(C)[C@@]3(F)[C@@H](O)C[C@@]21C |  | 248 | 
7 | CCC(CC)C(C)C | 116 | -115 | log10 biodegradation half-life (days): 0.778; log10 vapour pressure (mmHg): 1.38
8 | OC(Cc1ccccc1)(c1ccccc1)c1ccccc1 |  | 89.5 | 
9 | C=CC=CC#N | 136 | -60 | 
10 | O=C(O)C1CCCCC1C(=O)O (stereo not given) |  |  | log10 BCF: 0.3
11 | CCCCN1CCCCC1 | 176 |  | 
12 | CC(C)COCCOCCO | 217 |  | 
13 | CC(C)(C)c1ccc(O)c(O)c1 | 285 | 54.3 | 
14 | CCCCCCCCCC(=O)OC | 224 | -18 | log10 vapour pressure (mmHg): -1.43
15 | CCOC(=O)CCBr | 179 |  | 
16 | C[Si](C)(C)O[Si](O[Si](C)(C)C)(O[Si](C)(C)C)O[Si](C)(C)C |  |  | log10 vapour pressure (mmHg): -1.17
17 | CC(=O)OCC(C)OC(C)=O (stereo not given) | 190 |  | 
18 | c1ccc2nc3ccc4ccccc4c3cc2c1 |  |  | log10 Koc (L/kg): 4.39; log10 BCF: 2.02
19 | O=C(O)C(Cl)CCl (stereo not given) | 210 | 50 | 
20 | O=C(O)c1ccoc1 |  | 122 | 
21 | CC(C)OC(=O)Cl | 105 |  | log10 vapour pressure (mmHg): 1.57; ready biodegradability: not readily biodegradable
22 | O=c1[nH]cc(F)c(=O)[nH]1 |  | 283 | 
23 | ClC1=C(Cl)[C@]2(Cl)[C@H]3[C@H]([C@@H]4O[C@]4(Cl)[C@@H]3Cl)[C@@]1(Cl)C2(Cl)Cl (mixture of isomers) | 353 | 144 | log10 Koa: 8.39

Row | Compound | boiling point [°C] | melting point [°C] | also measured
24 | CCCCCCNC(=O)C=Cc1ccc(O)c(O)c1 |  | 142 | 
25 | ClC/C=C/CCl | 155 | -14.2 | log10 vapour pressure (mmHg): 0.574
26 | CC1=Nc2ccc(Cl)cc2S(=O)(=O)N1 |  | 330 | 
27 | Cc1cc(C)cc(NC(=O)N(C)C)c1 |  |  | log10 Koc (L/kg): 1.73
28 | O=[N+]([O-])c1ccc(-c2ccccc2)cc1 | 340 | 114 | 
29 | CCCC(C)CCC(C)C (stereo not given) | 158 |  | log10 biodegradation half-life (days): 0.301
30 | C=CCC(C)(O)CC=C | 158 |  | 
31 | O=C(O)C(F)(F)C(F)(F)C(F)(F)C(=O)O |  | 80 | 
32 | S=C=Nc1cccc2ccccc12 |  | 58 | 
33 | CC(C)C(C)(C)C(C)(C)C | 166 | -36.4 | 
34 | NS(=O)(=O)c1cc2c(cc1Cl)NC(CSCC(F)(F)F)NS2(=O)=O (stereo not given) |  | 206 | 
35 | CC(=O)c1cccc(Br)c1 |  | 7.5 | 
36 | C=CCCCCCCCCCCCCCCC | 300 | 11.5 | log10 vapour pressure (mmHg): -3.34
37 | CCCCCI | 155 | -85.6 | log10 Henry constant (atm·m³/mol): -1.71; log10 vapour pressure (mmHg): 0.642
38 | CCCCOCCOCCOC(C)=O | 245 | -32 | log10 vapour pressure (mmHg): -1.4; ready biodegradability: readily biodegradable
39 | COC(CBr)OC | 149 |  | 
40 | O=c1oc2ccccc2cc1O |  | 154 | 
41 | CCCCCCOC | 126 |  | 
42 | FC(F)(F)C(F)(F)C(F)(C(F)(F)F)C(F)(F)C(F)(F)F | 58.4 | -115 | 
43 | C[C@@H]1[C@@H](c2ccc(Cl)cc2)SC(=O)N1C(=O)NC1CCCCC1 (single isomer, unassigned) |  | 108 | log10 Koc (L/kg): 3.79; log10 vapour pressure (mmHg): -7.59
44 | CCCNC | 62 |  | 
45 | O=C(Nc1cccc2ccccc12)Nc1cccc2ccccc12 |  | 296 | 
46 | c1cc2c3c(cccc3c1)CC2 | 279 | 93.4 | log10 Henry constant (atm·m³/mol): -3.74; log10 Koa: 6.31; log10 Koc (L/kg): 3.59; log10 biodegradation half-life (days): 1.59; log10 vapour pressure (mmHg): -2.67; ready biodegradability: not readily biodegradable; log10 BCF: 2.88
